From patent US11110070B2 (priority 2015, dated 2021)
Entries after “also recorded” stand apart in the source; their conditions may differ. Where a name gives a salt, the structure may show the parent alone.

Tests used:
[1] = tested on: 129S6/SvEv mice; assay: FST after prophylactic ketamine or ketamine metabolites (FIG. 15); type: in vivo; conditions: at 10 and 30 mg/kg
[2] = tested on: 129S6/SvEvTac mice; assay: Other behaviors following fluoxetine treatment before SD; type: in vivo; conditions: fluoxetine 3 weeks before SD
Procedure: (§1) Experiment 3 (Pre-fluoxetine in SD): At 6 weeks of age, fluoxetine hydrochloride (Fix) (BioTrend Chemicals AG, B6197) was administered in the drinking water (18 mg kg^−1/day) for 3 weeks before the start of SD. Starting at 9 weeks of age, SD was then administered for 2 weeks without vehicle or Flx in the drinking water.

[3] = tested on: C57BL/6NTac mice; assay: FST in chronic corticosterone (CORT) model; type: in vivo; conditions: ketamine 90 mg kg^−1 or fluoxetine 18 mg kg^−1/day, before 3 weeks of CORT; hydrochloride
[4] = tested on: 129S6/SvEvTac mice; assay: Forced swim test (FST) in social defeat (SD) model; type: in vivo
Procedure: Experiment 1 (Pre-ketamine in social defeat (SD)): At 8 weeks of age, a single injection of saline (0.9% NaCl) or ketamine (K) (10, 30, or 90 mg kg^−1) (Ketaset III, Ketamine HCl, Fort Dodge Animal Health, Forth Dodge, Iowa) was administered. Ketamine was prepared in physiological saline and all injections were administered intraperitoneally (i.p.) in volumes of 0.1 cc per […]. […] At 9 weeks of age, 1 week following this injection, SD was started.
24 h after the last bout of SD, a single injection of saline or ketamine (30 mg kg^−1) was administered (mice were 11 weeks old). The forced swim test (PST) was administered 2 h following the injection.
as §1
(§2) Adult aggressor CD-1 male mice were single-housed in Macrolon® polycarbonate resin cages (15.25 in×7.8 in×9.5 in) (Animal Care Systems, Inc., Centennial, Colo.). Male 129S6/SvEvTac mice (9 weeks of age) were subsequently placed into the resident. CD-1 mouse's cage. Three antagonistic encounters were allowed between the CD-1 mouse and the intruder. Each of these encounters typically lasted less than 5 min. Following the encounters, mice were separated by a polished stainless steel cage divider (Animal Care Systems, Inc., Centennial, Colo., P/N C79171), which allowed for olfactory and auditory communication, but limited visual or tactile contact. The partition was removed daily for 2 weeks and 3 antagonistic encounters were allowed between the mice each day. This procedure consistently yielded a submissive phenotype in the experimental intruder mice. Control (Ctrl) mice were group housed 4 to 5 per cage in Macrolon® polycarbonate resin cages without dividers.
The FST was administered as previously described (A11). Briefly, mice were placed into clear plastic buckets 20 cm in diameter and 23 cm deep filled ⅔ of the way with 22° C. water. Mice were videotaped, from the side for 6 min and were exposed to the swim test on 2 consecutive days. For the SI) experiments, scoring was performed using an automated Viewpoint Videotrack software package (http://www.viewpoint.fr/en/a/anxiety-and-depression). For the CORT experiments, automated scoring was done using the automated X'PERT EST software suite (Bioseb, Vitrolles, France). The dependent variable was immobility.

[5] = Body weight in CORT model; type: in vivo, mice; conditions: ketamine 90 mg kg^−1 single injection or fluoxetine 18 mg kg^−1 for 3 weeks, before CORT
[6] = tested on: C57BL/6NTac mice; assay: EPM in CORT model; type: in vivo; conditions: ketamine or fluoxetine before CORT
Procedure: (§3) Experiment 5 (Pre-ketamine and pre-fluoxetine corticosterone (CORT)): C57BL16NTac mice were injected with ketamine (10, 30, 90 mg kg^−1, i.p.) 1 week before the start of CORT, or administered fluoxetine (18 mg kg^−1 per day) in the drinking water for 3 weeks before the start of CORT. Ketamine was purchased from Merial (100 mg/ml stock solution). Fluoxetine hydrochloride (160 μg/mL, equivalent to 18 mg kg^−1 per day in the drinking water) was purchased from Anawa Trading (Zurich, Switzerland) and dissolved in 0.45% hydroxypropyl-β-cyclodextrin (β-CD) (Sigma-Aldrich, Saint-Quentin Fallavier, France) solution. Following ketamine or fluoxetine treatment, CORT was administered for 3 weeks in the drinking water. CORT (4-pregnen-11b-DIOL-3 20-DIONE 21-hemisuccinate) (35 μg/ml) from. Sigma Aldrich (Saint-Quentin Fallavier, France) was dissolved in vehicle (0.45% β-CD). Control animals received vehicle (0.45% β-CD) throughout the duration of the experiment.
Testing was performed as previously described (A14). […] For the 12956/SvEv experiments, videos were scored using behavioral tracking software (TopScan, CleverSys, Reston, Va.). For the C57BL/6Ntac experiments, all parameters were measured using a videotracker (EPM3C. Bioseb, Vitrolles, France).

[7] = tested on: 129S6/SvEvTac mice; assay: Fighting behavior during SD bouts; type: in vivo; conditions: SD-Flx vs SD-Veh
Procedure: as §2

[8] = tested on: C57BL/6NTac mice; assay: NSF in CORT model; type: in vivo; conditions: treatment after 4 weeks of CORT; 14 days after the start of treatment
Procedure: as §3, with “experiment. […]” for “experiment.”
Testing was performed as previously described (A13). […] The latency of the mice to begin eating was recorded. Immediately after the latency was recorded, the food pellet was removed from the arena. The mice were then placed into a cage and the amount of food consumed in 5 min was measured (home cage consumption), followed by an assessment of post-restriction weight. […]

[9] = tested on: C57BL/6NTac mice; assay: Tail suspension test (TST) after CORT; type: in vivo; conditions: after 4 weeks of CORT; ketamine 10 mg kg^−1 one injection or fluoxetine 18 mg kg^−1 per day; both time points
Procedure: Experiment 6 (Post-ketamine and post-fluoxetine in CORT); In C57BL/6NTac mice. vehicle or CORT was administered for 4 weeks in the drinking water. While administration with 0.45% β-CD or CORT continued, mice were injected with saline or ketamine (10 mg kg^−1), or were administered vehicle or chronic fluoxetine (18 mg kg^−1 per day in the drinking water).
The TST was administered as previously described (A2). Briefly, animals were suspended for 6 min and immobility during this period was assessed using an automated TST apparatus (Bioseb, Vitrolles, France). A specific strain gauge linked to a computer quantifies the time spent by each mouse trying to escape.

SMILES | prophylactic efficacy (behavioral despair, FST) [1] | anxiety or cognition [2] | immobility time on day 2 in the FST [3] | immobility time, day 2 of FST ([4]; Ctrl mice, fluoxetine 18 mg kg^−1 for 3 weeks, vs Ctrl-Veh) | immobility time, day 2 of FST ([4]; SD mice, fluoxetine 18 mg kg^−1 for 3 weeks before SD) | CORT-induced increase in body weight [5] | time in the closed arms of EPM (anxiety-like phenotype) [6] | behavior during SD bouts [7] | latency to feed in NSF [8] | immobility time in the TST [9]
N[C@@]1(c2ccccc2Cl)CCC[C@@H](O)C1=O [HNK, (2R,6R)-hydroxynorketamine] | efficacious as prophylactics | – | – | – | – | – | – | – | – | –
CNCCC(Oc1ccc(C(F)(F)F)cc1)c1ccccc1 (stereo not shown) [fluoxetine, fluoxetine hydrochloride] | – | did not significantly alter anxiety or cognition | decreased immobility time; also recorded: significantly reduced immobility | equal levels of immobility time | did not improve immobility time | prevented the CORT-induced increase in body weight | Neither ketamine nor fluoxetine robustly protected | do not display differences during SD bouts | decreased the latency to feed | decreased immobility time in the TST
